Reference: US20250025451A1, “TREATMENT OF CANCER WITH KDM4 INHIBITORS” (Celgene Corporation, priority 2021, published 2025)
Read-outs that look alike come from different tables or passages of the source.

Assays:
ZR-75-1 = test: cell-proliferation assay (MTS), ZR-75-1; format: cell-based; settings: ZR-75-1, human breast carcinoma, 168 hours
Experimental: Compound 1 was evaluated in in vitro cell-proliferation assays (BrdU assay, MTS assay, or Cell Titer Glo (CTG) assay) in multiple cancer cell lines and patient-derived organoid models to determine half-maximal inhibitory concentrations (IC50s).
Viability and BrdU thymidine incorporation assays were performed in multiwell plates seeded with cells in growth medium. After seeding, multiwell plates were cultured for 24 hours in a humidified incubator at 37° C. to promote adherence. […] The cultures were incubated for 168 hours after which the number of viable cells or the amount of thymidine incorporation in each test well was assessed by the methods as indicated above. Readouts were performed using an EnVision® Multilabel Reader (PerkinElmer, Waltham, MA) and the results were expressed as a percent of the negative control. Percent of Control values were plotted against the corresponding Compound 1 concentration and the relative IC50 value was determined from a non-linear regression curve as the concentration where inhibition was half-maximal. For cell lines where the number of IC50 determinations exceeded one, the IC50 was expressed as the mean IC50±SD.
Half-maximal inhibitory concentration (IC50) values for Compound 1 inhibition of cell proliferation were determined for nine cancer cell lines and one normal human fibroblastcell line.

[1] = system: myeloid hematopoietic progenitor cells derived from human bone marrow; test: myeloid colony formation of hematopoietic progenitor cells; format: cell-based
Experimental: Compound 1 was evaluated for its effects on proliferation of erythroid and myeloid hematopoietic progenitor cells derived from human bone marrow at […] Technologies Inc. (Vancouver, BC, Canada).
Cells were thawed rapidly at 37° C. into DNAse I and then diluted in 10 mL of Iscove's Modified Dulbecco's medium containing 2% fetal bovine serum (IMDM+2% FBS) and washed by centrifugation (1200 rpm for 10 minutes at room temperature). The supernatant was discarded and the cell pellet resuspended in a known volume of IMDM+2% FBS. A nucleated cell count (3% glacial acetic acid) and viability assessment (trypan blue exclusive test) were performed.
Compound 1 and positive control (panobinostat) were diluted in DMSO and tested at concentrations ranging from 0.002 μM to 5 μM in final media. These dilutions provided the appropriate final test concentrations required for the test and control articles ([…], and 0.002 μM).
Test and control articles were incubated with human bone marrow hematopoietic progenitor cells. After 14 days, cell colonies were assessed.
To calculate the concentration of 50% and 90% inhibition of colony growth (IC50 and IC90) for each test article, a dose response curve was generated plotting the log of the test article concentration versus the percentage of control colony growth using GraphPad Prism. […] The IC50 and IC90 values for both test and control articles were derived from an interpolation of the curve fit. In cases where the IC50/90 value reported by GraphPad Prism is a value beyond the range of concentrations that were actually tested, if this value is more than 4 times the highest concentration tested, or where GraphPad Prism cannot calculate an IC50/90 value, notations of >5 μM (for test article compound 1) are used.

[2] = system: PA0165F patient-derived pancreatic cancer organoid model; test: organoid colony formation and viability assay, PA0165F; format: cell-based, human
Experimental: (§1) The IC50 values for Compound 1 inhibition of colony formation and viability were determined for the patient-derived colon cancer organoid models: SU60, T002C, SU62, SU34, SU103, T03SC, and SU106, patient-derived pancreatic cancer organoid models PA016SF, PA0143F, T016P, and T028P, and a patient-derived breast cancer organoid model FS5S3.
(§2) Colony formation and viability assays were performed in multiwell plates seeded with organoids using an in vitro culture system composed of a Matrigel layer, media containing a defined set of growth factors, and co-culture with Wnt3 A-secreting mouse embryonic fibroblasts. Assays were initiated by adding either DMSO as a negative control, or an inhibitor panobinostatat 100×IC50 concentration as a positive control, or serially diluted Compound 1. The cultures were incubated for 168 or 144 hours after which the number of viable organoids in each test well was assessed respectively using one of two detection methods: CTG or staining with calcein-AM followed by imaging and colony counting. Colony count or viability of cells treated with compound 1 was expressed as a percent of the negative control. Aggregated Percent of Control values were plotted against the corresponding Compound 1 concentration and the absolute IC50 value was determined from a non-linear regression curve as the concentration where inhibition was 50% of the control.

[3] = system: PA0143F patient-derived pancreatic cancer organoid model; test: organoid colony formation assay, PA0143F; format: cell-based, human
Experimental: as §1, §2

[4] = system: SU60 patient-derived colon cancer organoid model; test: organoid colony formation and viability assay, SU60; format: cell-based, human
Experimental: as §1, §2
The colony formation inhibition assays were performed in multiwell plates seeded with SU60 organoids. The cultures were incubated for 168 hours after which the number of colonies was assessed by staining with calcein AM followed by imaging and colony counting. Colony counts were expressed as a percent of the negative control and aggregated Percent of Control values were plotted against the corresponding Compound 1 concentration. A curve was fitted using non-linear regression.

[5] = system: T035C patient-derived colon cancer organoid model; test: organoid colony formation assay, T035C; format: cell-based, human
Experimental: as §1, §2

KDM4 = test: biochemical activities (KDM4 inhibition); settings: KDM4 isoforms, FIG. 1

In the case of `CC(C)c1ccc(N(C)c2ccc3c(c2)OCC[C@H]3CNc2cnccc2C(=O)O)cc1` [Compound 1, 3-({[(4R)-7-{methyl[4-(propan-2-yl)phenyl]amino}-3,4-dihydro-2H-1-benzopyran-4-yl]methyl}amino)pyridine-4-carboxylic acid], the IC50 (ZR-75-1) is reported as over 10 µM, the IC50 ([1]; 336 h, human bone marrow progenitor cells, 14 days, read-out: IC50, inhibition of myeloid colony formation) is reported as over 5 µM and the IC90 ([1]; 336 h, human bone marrow progenitor cells, colony growth after 14 days) is reported as over 5 µg/mL. For the same molecule, the IC50 ([1]; 336 h, human bone marrow progenitor cells, colony growth after 14 days, read-out: Myeloid IC50) was over 5 µg/mL, the “concentrations at which colony morphology (size and density) was slightly compromised” value ([1]; myeloid derived colonies) was at least 1.67 μM and the “effect on colony formation compared to 0.1% DMSO” value ([1]; progenitor cells from normal human bone marrow, p>0.01) was “no significant effect”. The IC50 ([2]; Homo sapiens, PA0165F pancreatic carcinoma model) was under 30 nM, the IC50 ([2]; PA0165F human pancreatic carcinoma organoid, 144 hrs, Colony Counts) was 16 nM and the IC50 ([2]; PA0165F human pancreatic carcinoma organoid, 168 hrs, CTG) was 29 nM. For the same molecule, the IC50 ([3]; Homo sapiens, PA0143F pancreatic carcinoma model) was over 10 µM, the IC50 ([3]; PA0143F human pancreatic carcinoma organoid, 144 hrs, Colony Counts) was over 10 µM and the IC50 ([4]; Homo sapiens, SU60 colorectal carcinoma model, colony formation and viability assays) was under 150 nM. The IC50 ([4]; SU60 human colorectal carcinoma organoid, 144 hrs, Colony Counts) was 64 nM, the IC50 ([4]; SU60 human colorectal carcinoma organoid, 168 hrs, CTG) was 23 nM and the IC50 ([5]; Homo sapiens, T035C colorectal carcinoma model) was over 10 µM. The IC50 ([5]; T035C human colorectal carcinoma organoid, 144 hrs, Colony Counts) was over 10 µM and the biochemical activities (KDM4) was “potent PAN KDM4 inhibitor”.
